Measurements published in patent US9918966B2, “Anti-cancer compositions and methods” (The Penn State Research Foundation, priority 2013, dated 2018).

Columns and labels:
[1] = test system: FF2441 human fibroblast cells; assay: Cell viability, MTS assay; format: cell-based
Procedure: (§1) Cell viability, proliferation, apoptosis and cell cycle analysis: Viability and IC50 (μmol/L) of normal human melanocytes, fibroblast and melanoma cells following treatment with inhibitors are measured using the MTS assay (Promega, Madison, Wis.) described in Sharma A, et al., Clin Cancer Res 2009; 15:1674-85; and Madhunapantula S V, et al., Mol Cancer Ther 2008; 7:1297-308. […] IC50 values for each inhibitor in μmol/L for respective cell lines are measured from three independent experiments using GraphPad Prism version 4.01 (GraphPad Software, La Jolla, Calif.).
(§2) The number of viable cells is measured using MTS and percentage decrease in viability calculated. IC50 values for each inhibitor in μmol/L for respective cell lines are measured from three independent experiments using GraphPad Prism version 4.01 (GraphPad Software, La Jolla, Calif.).

[2] = test system: FOM103 normal human melanocytes; assay: Cell viability, MTS assay; format: cell-based; settings: Melanocyte
Procedure: as §1, §2

[3] = test system: WM35 radial growth phase melanoma cells; assay: Cell viability, MTS assay; format: cell-based; settings: Homo sapiens
Procedure: as §1, §2

[4] = test system: WM115 vertical growth phase melanoma cells; assay: Cell viability, MTS assay; format: cell-based; settings: Homo sapiens, WM-115
Procedure: as §1, §2

[5] = test system: UACC 903 metastatic melanoma cells; assay: cells; settings: Homo sapiens
Procedure: as §1, §2

[6] = test system: 1205 Lu metastatic melanoma cells; assay: cells; settings: Homo sapiens
Procedure: as §1, §2

[7] = test system: various cancer cell lines; assay: Killing of various cancer cell lines compared with normal fibroblast cells; format: cell-based, human; settings: MiaPaca-2, MDA-MB-231, PC-3, HT-1080, Caco2 versus normal fibroblast cells
Text: Therapeutic universality of selenocoxib-1-GSH for killing cancer cells is examined by treating pancreatic (MiaPaca-2), breast (MDA-MB-231), prostate (PC-3) or sarcoma (HT-1080) and colon (Caco2) cell. lines with the drug and establishing the IC50 for each cell line, Table III. Selenocoxib-1-GSH kills the various cancer cell lines at 2-3-fold lower concentrations than normal fibroblast cells.

1205 Lu melanoma cells = assay: Western blot analysis; format: cell-based, human
Text: (§3) Cell lysates are harvested and processed as described in Sharma A et al., Cancer Res 2006, 66:8200-9. […] Protein lysates are collected for Western blotting. Blots are probed with total and phospho-Akt (Ser473), phospho-PRAS40 (Thr246), phospho-Erk1/2 (Thr202/Tyr204), total and Phospho-Mek1/2 (Ser217) and cleaved PARP from Cell Signaling Technology (Danvers, Mass.). Total PRAS40 from Invitrogen (Carlsbad, Calif.). Total Erk, cyclin D1, p27, Alpha-enolase and secondary antibodies conjugated with horseradish peroxidase from Santa Cruz Biotechnology (Santa Cruz Biotechnology, Santa Cruz, Calif.). COX-1 and COX-2 antibodies were obtained from Cayman Chemical Company, Ann Arbor, Mich. Immunoblots are developed using the enhanced chemiluminescence detection system (Amersham Pharmacia Biotech, Piscataway, N.J.).

UACC 903 melanoma cells = assay: Western blot analysis; format: cell-based, human
Text: as §3

UACC 903 tumors = format: in vivo, athymic-Foxn1nu nude mice
Procedure: (§4) Tumor kinetics are measured by subcutaneous injection of 1×10^6 1205 Lu or UACC 903 cells in 0.2 mL of DMEM supplemented with 10% FBS subcutaneously injected above both left and right rib cages of 3- to 4-wk-old female athymic-Foxn1^nu nude mice (Harlan Sprague Dawley, IN).

1205 Lu tumors = format: in vivo, athymic-Foxn1nu nude mice
Procedure: as §4

Human recombinant COX-2 = molecular target: T1, Human recombinant COX-2 (Homo sapiens, UniProt P35354); format: biochemical; settings: 0.2, 2.0 and 20 nM; DMSO = 100% activity; FIG. 2C
T1 construct: purchased Cayman Chemical, Ann Arbor, Mich
T1 sequence (P35354 18-604): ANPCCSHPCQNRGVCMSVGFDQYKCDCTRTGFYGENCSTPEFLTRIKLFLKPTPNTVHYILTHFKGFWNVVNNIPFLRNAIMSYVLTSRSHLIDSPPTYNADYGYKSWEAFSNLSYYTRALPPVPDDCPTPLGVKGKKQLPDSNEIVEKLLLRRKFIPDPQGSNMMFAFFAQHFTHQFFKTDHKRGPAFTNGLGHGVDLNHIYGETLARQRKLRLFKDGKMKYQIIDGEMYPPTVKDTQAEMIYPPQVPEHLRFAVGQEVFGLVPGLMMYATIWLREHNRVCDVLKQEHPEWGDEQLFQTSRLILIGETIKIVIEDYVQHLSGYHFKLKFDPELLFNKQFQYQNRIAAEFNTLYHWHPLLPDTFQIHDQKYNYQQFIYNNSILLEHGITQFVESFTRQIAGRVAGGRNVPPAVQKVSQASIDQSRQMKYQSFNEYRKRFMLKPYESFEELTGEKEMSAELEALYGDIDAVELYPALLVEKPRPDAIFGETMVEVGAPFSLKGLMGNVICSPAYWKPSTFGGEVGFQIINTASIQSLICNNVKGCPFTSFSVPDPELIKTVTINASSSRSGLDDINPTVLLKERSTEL

SMILES: NC(CCC(=O)NC(CS[Se]Cc1cc(-c2ccccc2)n(-c2ccc(S(N)(=O)=O)cc2)n1)C(=O)NCC(=O)O)C(=O)O (stereo not shown) [Selenocoxib-1-GSH, selenocoxib-1-glutathione]
- IC50 ([1]; FF2441, 24 h): > 100 µM
- IC50 ([1]; FF2441, 48 h): 75.5 ± 5.6 µM
- IC50 ([1]; FF2441, 72 h): 36.3 ± 5.6 µM
- IC50 ([2]; FOM103, 24 h): 66.3 ± 3 µM
- IC50 ([2]; FOM103, 48 h): 53.4 ± 4.3 µM
- IC50 ([2]; FOM103, 72 h): 41.2 ± 3.2 µM
- IC50 ([3]; WM35, 24 h): 52.6 ± 3.8 µM
- IC50 ([3]; WM35, 48 h): 4.1 ± 0.8 µM
- IC50 ([3]; WM35, 72 h): 2.7 ± 0.4 µM
- IC50 ([4]; WM115, 24 h): 30.1 ± 3.3 µM
- IC50 ([4]; WM115, 48 h): 5.8 ± 0.9 µM
- IC50 ([4]; WM115, 72 h): 3.1 ± 0.4 µM
- IC50 ([5]; UACC-903, 24 h): 30.9 ± 2.8 µM
- IC50 ([5]; UACC-903, 48 h): 20.6 ± 1.7 µM
- IC50 ([5]; UACC-903, 72 h): 14.2 ± 1.2 µM
- cytotoxicity at 12.5 µM ([5]; UACC-903, 72 h, read-out: decrease in cell viability): 40 to 60%
- IC50 ([6]; 24 h): 24.6 ± 2.2 µM
- IC50 ([6]; 48 h): 17.2 ± 1.6 µM
- IC50 ([6]; 72 h): 10.6 ± 2.6 µM
- cytotoxicity at 12.5 µM ([6]; 72 h, read-out: decrease in cell viability): 40 to 60%
- lower concentrations killing cancer cell lines than normal fibroblast cells [7]: 2-3 fold
- cleaved PARP protein (1205 Lu melanoma cells): elevates levels of cleaved PARP protein
- expression of cyclin-D1 (1205 Lu melanoma cells): inhibits the expression of cyclin-D1
- levels of p27 (1205 Lu melanoma cells): increases the levels of p27
- pErk1/2 levels (1205 Lu melanoma cells; 15 and 20 μmol/L): increased pErk1/2 levels
- pPRAS40 (1205 Lu melanoma cells; 72 h): reduces expression
- Akt phosphorylation (1205 Lu melanoma cells; 72 h, increasing concentrations, compared to celecoxib): inhibited the Akt phosphorylation in a dose dependent manner
- cleaved PARP protein (UACC 903 melanoma cells; UACC 903): elevates levels of cleaved PARP protein
- expression of cyclin-D1 (UACC 903 melanoma cells; UACC 903): inhibits the expression of cyclin-D1
- levels of p27 (UACC 903 melanoma cells; UACC 903): increases the levels of p27
- pErk1/2 levels (UACC 903 melanoma cells; UACC 903, 15 and 20 μmol/L): increased pErk1/2 levels
- pPRAS40 (UACC 903 melanoma cells; UACC 903, 72 h): reduces expression
- Akt phosphorylation (UACC 903 melanoma cells; UACC 903, 72 h, increasing concentrations, compared to celecoxib): inhibited the Akt phosphorylation in a dose dependent manner
- decrease in tumor volume (UACC 903 tumors; UACC 903, at the end of treatment, compared to controls): ≤ 70%
- reduction of tumor development (UACC 903 tumors; UACC 903, 0.127 μmoles (10 ppm selenium) intraperitoneally on alternate days for 4 weeks, compared to DMSO control): 52%
- day from which a significant decrease in xenograft tumor development is observed (UACC 903 tumors; UACC 903 tumors, compared to vehicle DMSO): 22 days
- day from which a significant decrease in xenograft tumor development is observed (1205 Lu tumors; 1205 Lu tumors, compared to vehicle DMSO): 16 days
- decrease in tumor volume (1205 Lu tumors; 1205 Lu, at the end of treatment, compared to controls): ≤ 70%
- reduction of tumor development (1205 Lu tumors; 1205 Lu, 0.127 μmoles (10 ppm selenium) intraperitoneally on alternate days for 4 weeks, compared to DMSO control): 70.5%
- COX-2 inhibitory activity (Human recombinant COX-2): retain COX-2 inhibitory activity
